From patent publication US11154519B2, “Inhibitors and their uses” (MEDICAL RESEARCH COUNCIL, priority 2015, dated 2021)

Tests used:
PPP1R15A-PP1 complex = biological target: T1, PPP1R15A-PP1 complex (Homo sapiens, UniProt O75807); assay: SPR steady-state binding to R15A-PP1 holophosphatase; conditions: SPR steady-state, MBP-R15A325-636-His captured on bio-PP1c, 10° C.; read-out: R15A (KD)
T1 construct: cDNAs encoding amino acids 325-636 of PPP1R15A and 340-698 of PPP1R15B were His-tagged and cloned into pMAL-c5x; made in house; host or cells: R15A: E. coli BL21-Gold (pMAL-c5x); PP1γ: Sf9 insect cells (baculovirus, pDW464)
T1 sequence (O75807 325-636): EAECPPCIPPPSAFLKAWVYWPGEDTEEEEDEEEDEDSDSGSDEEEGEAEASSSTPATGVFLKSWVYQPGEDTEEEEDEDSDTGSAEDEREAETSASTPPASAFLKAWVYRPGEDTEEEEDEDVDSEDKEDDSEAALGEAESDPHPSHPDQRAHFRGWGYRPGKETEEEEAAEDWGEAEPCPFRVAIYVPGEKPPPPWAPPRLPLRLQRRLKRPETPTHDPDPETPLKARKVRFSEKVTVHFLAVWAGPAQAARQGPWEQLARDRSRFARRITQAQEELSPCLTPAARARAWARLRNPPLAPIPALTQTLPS
T1 sequence (P36873 whole entry partner, the tested form may be a part): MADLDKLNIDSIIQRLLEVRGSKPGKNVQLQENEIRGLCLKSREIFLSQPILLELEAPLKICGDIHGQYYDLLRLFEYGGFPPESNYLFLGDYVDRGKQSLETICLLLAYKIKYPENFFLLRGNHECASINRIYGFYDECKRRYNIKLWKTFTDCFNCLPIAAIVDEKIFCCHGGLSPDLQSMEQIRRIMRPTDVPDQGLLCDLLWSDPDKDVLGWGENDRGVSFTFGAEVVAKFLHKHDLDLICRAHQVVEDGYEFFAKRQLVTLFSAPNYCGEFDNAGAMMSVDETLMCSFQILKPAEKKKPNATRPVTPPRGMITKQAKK
Description: PPP1R15A^325-636 and PPP1R15B^340-698 were expressed and purified as follows: the cDNAs encoding amino acids 325-636 of PPP1R15A and 340-698 of PPP1R15B were His-tagged and cloned into pMAL-c5x. Recombinant PPP1R15A/B were expressed in BL21-Gold cells and purified by affinity chromatography on a HisTrap HP column (GE Healthcare), followed by a MBPTrap HP column (GE Healthcare). The proteins were analyzed on BOLT SDS-PAGE 4-12% Bis-Tris gels (Life Technologies) stained with SimplyBlue SafeStain (Life Technologies). cDNA encoding for human PP1γ was cloned into the baculovirus transfer vector pDW464 to add a biotin acceptor peptide (BAP). The vector also encodes for the E. coli biotin holoenzyme synthetase (BirA), so that BAP-tagged proteins can be biotinylated in vivo in Spodoptere frugiperda (Sf9) insect cells (Duffy et al., Anal. Biochem., 262, 122-128, 1998). The Bac-to-Bac baculovirus expression system (Life Technologies) was used to generate the recombinant bacmid DNA and Sf9 insect cells were used to amplify the viral stocks Cultures were harvested by centrifuging at 1,200 g for 15 minutes, cell pellets were resuspended in lysis buffer (50 mM Tris pH 7.4, 150 mM NaCl, 0.2% Triton, 5% Glycerol, 1 PiC tablet (Roche) per 50 ml and 0.2 mM PMSF) and followed by gentle sonication. The protein was first purified on a 5 ml HiTrap Q HP column (GE Healthcare) followed by a HiLoad 16/600 Superdex 200 column (GE Healthcare). The positive fractions confirmed by SDS-PAGE and western blot were pooled, concentrate to ˜1 μM and stored at −80° C.
A Biacore T200 (GE Healthcare) system was used for all experiments and biotinylated PP1 was captured using a Sensor Chip SA (GE Healthcare, catalog no BR-1005-31). The streptavidin coated surface was activated by 1 min injection with a solution of 50 mM NaOH and 1 M NaCl. Biotin-PP1 was diluted in the running buffer (50 mM Tris pH 7.5, 100 mM NaCl, 0.1 mM EGTA, 1 mM MnCl2, 0.05% Tween 20) and injected at approximately 300 nM concentration directly to streptavidin coated surface for 100 sec or to reach immobilization level of biotin-PP1 corresponding to ˜7000 RU. A blank immobilization was performed for one of the SA sensor chip surface to use as a reference.
With minor deviations, the same procedure and conditions were used in all binding experiments. Small molecules were stored as 50 mM stock solutions in 100% DMSO. Prior to determining binding constants, serial dilutions of either 12 or 8 concentrations of the compounds were prepared in the running buffer in a 96-well plate. Prior to each compound dilution series the regulatory subunit, R15A or R15B, was diluted to […] in the running buffer and captured on the biotin-PP1 surface, to form the holophosphatase complex on the sensor chip surface. Then, without regenerating the surface, the compound dilution series was injected onto the surface of the chip Sensorgrams were analyzed using the Biacore T200 evaluation software and the binding constants determined based on a steady-state model. Kinetic experiments are carried out using different concentrations of the compound and their respective equilibrium binding levels determined.
Surface Plasmon Resonance (SPR) was used to measure the binding affinity of compounds to the PPP1R15A/B-PP1 phosphatase complex. Biotin acceptor peptide (BAP) was fused to the N-terminus of PP1γ, which enables the biotinylation of the BAP-tagged protein in Sf9 insect cells. After purification the BAP-PP1γ protein was captured on a streptavidin sensor chip (SA-chip, GE healthcare) to a response level of ˜5.000 RU. Using controlled biotinylation enables orientated and uniform immobilization on the sensor chip surface. The PP1γ was then used to capture PPP1R15A/B and form a holophosphatase complex on the surface of the streptavidin chip. This complex can then be used to test binding of compounds. 10 μM PPP1R15A/B protein concentration was used to form the holophosphatase complex during a 80 s injection. […]

HeLa cells [1] = assay: Cytoprotection against ER stress (tunicamycin), IncuCyte; format: cell-based; conditions: Homo sapiens, 250 ng/ml Tunicamycin, 72 hours, compound 0-20 μM, read-out: Cytoprotection from Tm (compared to GNB)
Description: (§1) HeLa cells (40,000 cells/ml) were plated in a 96-well plate and treated with different concentrations (0-20 μM) of a compound as indicated in the presence of 250 ng/ml Tunicamycin for 72 hours. To monitor cell death 1/2000 dilution of the CellTox green dye (Promega) was added to the media. The growth of the cells was monitored over time and pictures taken every 2 hours with the IncuCyte ZOOM system and analysed by the IncuCyte ZOOM software (Essen BioScience). […] Cytoprotection against ER stress can be measured by a suitable assay. In this instance, cytoprotection was measured in HeLa cells in which ER stress was elicited by the addition of media containing tunicamycin, a drug that blocks N-glycosylation, thereby preventing protein folding and inducing the unfolded protein response. Cell viability was then detected in the presence and absence of a compound listed in Table 1 after a set period of time, by monitoring cell growth over time. Cytoprotection from ER stress was measured in terms of the percentage increase in viable cells (relative to control) after ER stress.

HeLa cells [2] = assay: Cell death dose response (CellTox green, IncuCyte); format: cell-based; conditions: IncuCyte, 0-20 μM
Description: Toxicity of the compounds is assessed using Cell viability Counting Kit-8 (Dojindo) or in a Incucyte (Essenbioscience) using both phase contrast and IncuCyte™ Cytotox Green Reagent.
as §1
EC50 were extrapolated from dose response experiments on cell death. Data from IncuCyte was plotted and analysed in Prism. The “% of cell death” for each data point. For each concentration there is a % of cell death vs time, the area under the curve was taken and plotted against log conc=>EC50 (analysis in Prism).

Row | Compound | Kd (PPP1R15A-PP1 complex) [µM] | Emax (HeLa cells [1]) [%] | Effect on cell death (HeLa cells [2])
1 | [H]/N=C(\N)NN=Cc1c(Cl)ccc(Cl)c1Cl [Compound 31, (E)-2-(2,3,6-trichlorobenzylidene)hydrazine-1-carboximidamide] | 11.1 ± 1.6 | 99 | No
2 | [H]/N=C(\N)NN=Cc1cc(Cl)cc(Cl)c1 [Compound 34, (E)-2-(3,5-dichlorobenzylidene)hydrazine-1-carboximidamide] | 17.2 ± 1.9 | 57 | No
